Data as given in patent US20240139211A1, “METHODS AND COMPOSITIONS FOR TREATING AMYOTROPHIC LATERAL SCLEROSIS” (Amylyx Pharmaceuticals, Inc., priority 2022, published 2024).
Like-named read-outs stand apart in the source and are kept apart here.

Assays:
CYP2B6 = target: T1, CYP2B6 (Homo sapiens, UniProt P20813); test: in vitro; settings: microsomes, pH 7.4
T1 sequence (P20813 1-491): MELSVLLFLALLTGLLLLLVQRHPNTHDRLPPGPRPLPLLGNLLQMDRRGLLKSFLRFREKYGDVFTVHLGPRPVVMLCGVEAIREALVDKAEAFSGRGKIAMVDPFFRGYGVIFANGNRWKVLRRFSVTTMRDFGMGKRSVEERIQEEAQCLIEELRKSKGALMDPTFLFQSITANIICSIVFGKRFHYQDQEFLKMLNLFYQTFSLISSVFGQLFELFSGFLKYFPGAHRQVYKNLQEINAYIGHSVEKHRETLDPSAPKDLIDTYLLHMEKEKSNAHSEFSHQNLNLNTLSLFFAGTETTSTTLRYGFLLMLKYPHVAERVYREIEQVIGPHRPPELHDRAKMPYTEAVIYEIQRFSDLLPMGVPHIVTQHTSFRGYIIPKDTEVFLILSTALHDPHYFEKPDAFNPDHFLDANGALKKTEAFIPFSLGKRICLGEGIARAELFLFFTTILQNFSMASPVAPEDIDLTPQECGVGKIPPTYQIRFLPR

human hepatocytes = settings: 72 h, 100 μM
Experimental: Plateable and inducible cryopreserved human hepatocytes were thawed and isolated in human hepatocyte thawing medium. […] After attachment (4 hours), the medium was changed to fresh hepatocyte culture medium for overnight cell recovery. […] A positive control (100 μM chlorpromazine) was treated in parallel.

CYP2C9 [1] = target: T2, CYP2C9 (Homo sapiens, UniProt P11712); settings: 4 μM, pH 7.4
hrCYP2C9 = hrCYP2C9 (Homo sapiens, UniProt P11712); settings: 20 min, 6 μM, pH 7.4
hrCYP3A4 = hrCYP3A4 (Homo sapiens, UniProt P08684); test: Formation of CYP probe metabolite by hrCYP3A4; assay type: in vitro ADME; settings: hrCYP3A4 vs Negative Control, QC criterion ≥2
CYP2C9 [2] = target: T2, CYP2C9; test: Inhibition of CYP2C9 in human liver microsomes; settings: pH 7.4

T2 sequence (P11712 whole entry): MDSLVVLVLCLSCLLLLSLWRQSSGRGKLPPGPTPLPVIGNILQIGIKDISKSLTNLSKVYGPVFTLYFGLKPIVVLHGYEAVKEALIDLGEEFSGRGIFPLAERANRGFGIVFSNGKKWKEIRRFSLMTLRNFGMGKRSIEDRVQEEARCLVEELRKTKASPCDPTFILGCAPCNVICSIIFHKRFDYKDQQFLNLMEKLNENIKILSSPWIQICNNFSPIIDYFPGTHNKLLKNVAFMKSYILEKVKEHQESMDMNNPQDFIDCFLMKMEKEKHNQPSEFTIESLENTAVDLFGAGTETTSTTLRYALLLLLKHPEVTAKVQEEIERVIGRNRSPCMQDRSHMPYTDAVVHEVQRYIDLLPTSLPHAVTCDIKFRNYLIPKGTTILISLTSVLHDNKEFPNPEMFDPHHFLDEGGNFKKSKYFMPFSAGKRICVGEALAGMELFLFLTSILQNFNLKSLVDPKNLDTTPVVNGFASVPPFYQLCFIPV
hrCYP2C9, sequence (P11712 whole entry): as above
hrCYP3A4, sequence (P08684 whole entry): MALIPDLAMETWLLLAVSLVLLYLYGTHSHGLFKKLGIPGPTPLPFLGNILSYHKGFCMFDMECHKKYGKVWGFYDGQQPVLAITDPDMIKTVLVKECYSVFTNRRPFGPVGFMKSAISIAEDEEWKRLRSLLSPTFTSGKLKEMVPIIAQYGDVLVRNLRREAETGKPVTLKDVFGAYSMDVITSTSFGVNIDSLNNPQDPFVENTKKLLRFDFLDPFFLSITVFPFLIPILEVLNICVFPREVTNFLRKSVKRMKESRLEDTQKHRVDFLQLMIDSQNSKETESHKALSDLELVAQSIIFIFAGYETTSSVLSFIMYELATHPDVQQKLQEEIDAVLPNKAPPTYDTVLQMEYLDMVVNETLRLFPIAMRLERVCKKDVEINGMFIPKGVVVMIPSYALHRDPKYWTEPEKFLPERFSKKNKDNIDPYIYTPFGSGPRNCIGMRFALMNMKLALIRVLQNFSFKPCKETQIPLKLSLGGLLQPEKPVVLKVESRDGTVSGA

S=P(N1CC1)(N1CC1)N1CC1 [Thio-TEPA]
activity at 3.33 µM (CYP2B6): 66.9%
activity at 10 µM (CYP2B6): 44.1%
activity at 30 µM (CYP2B6): 26.7%

CN(C)CCCN1c2ccccc2Sc2ccc(Cl)cc21 [Chlorpromazine, chlorpromazine]
% MTS absorbance relative to vehicle control (human hepatocytes): 24.3%
Formazan absorbance, mean (human hepatocytes): 0.160

O=C(O)Cc1ccccc1Nc1c(Cl)cccc1Cl [Diclofenac]
Formation Rate Ratio (CYP2C9 [1]): 7.7
Formation Rate (hrCYP2C9): 0 pmol metabolite/min/mg Supersome protein
Measured Metabolite (hrCYP2C9): 0 µM
Formation Rate (hrCYP2C9; human): 845 pmol metabolite/min/mg Supersome protein
Measured Metabolite (hrCYP2C9; human): 1.56 µM

C[C@]12CC[C@H]3[C@@H](CCC4=CC(=O)CC[C@@]43C)[C@@H]1CC[C@@H]2O [Testosterone]
Formation Rate Ratio (hrCYP3A4; Testosterone (50 μM)): >>2

Nc1ccc(S(=O)(=O)Nc2ccnn2-c2ccccc2)cc1 [Sulfaphenazole]
activity at 3.33 µM (CYP2C9 [2]): 23.8%
activity at 10 µM (CYP2C9 [2]): 14.9%

Cc1ncc2n1-c1ccc(Cl)cc1C(c1ccccc1F)=NC2 [Midazolam]
Formation Rate Ratio (hrCYP3A4; Midazolam (2 μM)): >>2
